Assay results taken from patent US5162328A, “N-[3-[2-(1H-imidazol-1-yl)ethoxy]phenyl]-4-(2-thienyl)-2-pyrimidinamine and pharmacologically acceptable salts” (American Cyanamid Company, priority 1991, dated 1992).
Like-named read-outs stand apart in the source and are kept apart here.

Assay: Pharmacokinetics in dogs (plasma concentration by HPLC)
Type: in vivo, dog (beagle)
Conditions: dog; for concentration at 0.5 h / concentration at 1 h / concentration at 2 h / concentration at 4 h / concentration at 7 h / concentration at 12 h / AUC(0-t) / Cmax / Tmax / half-life / AUC(0-inf): plasma, po, 2 mg/kg/day, 2 mg/kg/day PO; for AUC(0-inf): read-out: AUCO- (to infinite time)
Procedure: Since dogs are used in toxicology studies of antiasthma compounds, this species is chosen for pharmacokinetic evaluations. Use of the dog permits the pharmacokinetic comparison of 2 or more compounds in the same test animal, an evaluation which could not be conveniently performed in a smaller species. For each test compound, normal dogs are given a dose of 2.0 mg/kg/day for 5 consecutive days. There is a washout period of 1 month between the study of each of the test compounds in the same four dogs. Each test compound is administered as a solution of 5 mg/ml in either 0.05 or 0.1N HCl which is dispensed into a gelatin capsule immediately prior to dosage.
Heparinized blood samples are obtained from each animal on the first, third and fifth day of dosage at 0.5, 1.0, 2.0, 4.0, 7.0, 12.0 and 24.0 hours after the dose. The samples are centrifuged immediately to obtain plasma which is frozen until analyzed.
Analysis of plasma is performed using High Performance Liquid Chromatography (HPLC). The analytical procedure is essentially identical for each compound. The internal standard used for N-[3-[2-(1H-imidazol-1-yl)ethoxy]phenyl]-4-(2-thienyl)2-pyrimidinamine is 2-chloro-11-(4-methyl-1-piperazinyl)dibenz[b,f][1,4]oxazepine succinate, while for 2-methyl-N^4 -[4-(4-pyridinyl)-2-pyrimidinyl]-1,4-benzenediamine dihydrochloride and N-[4-[2-(diethylamino)ethoxy]phenyl]-4-(4-pyridinyl)-2-pyrimidnamine dihydrochloride the internal standard is 7-ethoxy-coumarin. In a typical procedure, a 0.4 ml volume of acetonitrile containing internal standard is added a 0.2 ml volume of serum. The sample is mixed by vortexing and centrifuged. The clear protein free supernatent fluid is decanted into a clean tube and evaporated to dryness. The dry residue is dissolved in 0.2 ml of HPLC mobile phase and 50 ul of this solution injected. Peaks corresponding to the test compound being measured and to the internal standard compound are quantitated by their absorption of ultraviolet light at 280 nm. Each set of analytical samples is accompanied by the analysis of a group of standard dog plasma samples prepared to contain amounts of the compound being measured which encompasses the concentration range of the samples.
Four normal beagle dogs weighing between 9.2 and 10.2 Kg are used in the study.

With `c1cc(Nc2nccc(-c3cccs3)n2)cc(OCCn2ccnc2)c1` [N-[3-[2-(1H-imidazol-1-yl)ethoxy]phenyl]-4-(2-thienyl)-2-pyrimidinamine] the “concentration in plasma over a 12 hour period (in words)” value (after first dose, FIG. 4) was “at a higher level for a longer period than the other test compounds”, the concentration at 0.5 h (Dog 1, day 1, 0.5 h) was 483 ng/mL and the concentration at 1 h (Dog 1, day 1, 1 h) was 595 ng/mL. The concentration at 2 h (Dog 1, day 1, 2 h) was 392 ng/mL, the concentration at 4 h (Dog 1, day 1, 4 h) was 281 ng/mL and the concentration at 7 h (Dog 1, day 1, 7 h) was 122 ng/mL. For the same molecule, the concentration at 12 h (Dog 1, day 1, 12 h) was < 30 ng/mL, the AUC(0-t) (Dog 1, day 1) was 2160 ng·h/mL and the Cmax (Dog 1, day 1) was 595 ng/mL. For the same molecule, the Tmax (Dog 1, day 1) was 1 h, the half-life (Dog 1, day 1) was 2.75 h and the AUC(0-inf) (Dog 1, day 1) was 2480 ng·h/mL. The concentration at 0.5 h (Dog 1, day 3, 0.5 h) was < 30 ng/mL, the concentration at 1 h (Dog 1, day 3, 1 h) was 125 ng/mL and the concentration at 2 h (Dog 1, day 3, 2 h) was 98 ng/mL. The concentration at 4 h (Dog 1, day 3, 4 h) was < 30 ng/mL, the concentration at 7 h (Dog 1, day 3, 7 h) was < 30 ng/mL and the concentration at 12 h (Dog 1, day 3, 12 h) was < 30 ng/mL. The AUC(0-t) (Dog 1, day 3) was 143 ng·h/mL, the Cmax (Dog 1, day 3) was 125 ng/mL and the Tmax (Dog 1, day 3) was 1 h. It also gave an AUC(0-inf) (Dog 1, day 3) of 398 ng·h/mL, a concentration at 0.5 h (Dog 1, day 5, 0.5 h) of 339 ng/mL and a concentration at 1 h (Dog 1, day 5, 1 h) of 418 ng/mL. The concentration at 2 h (Dog 1, day 5, 2 h) was 267 ng/mL, the concentration at 4 h (Dog 1, day 5, 4 h) was 112 ng/mL and the concentration at 7 h (Dog 1, day 5, 7 h) was < 30 ng/mL. The concentration at 12 h (Dog 1, day 5, 12 h) was < 30 ng/mL, the AUC(0-t) (Dog 1, day 5) was 996 ng·h/mL and the Cmax (Dog 1, day 5) was 418 ng/mL. It also gave a Tmax (Dog 1, day 5) of 1 h, a half-life (Dog 1, day 5) of 1.58 h and an AUC(0-inf) (Dog 1, day 5) of 1290 ng·h/mL. For the same molecule, the concentration at 0.5 h (Dog 2, day 1, 0.5 h) was 185 ng/mL, the concentration at 1 h (Dog 2, day 1, 1 h) was 334 ng/mL and the concentration at 2 h (Dog 2, day 1, 2 h) was 251 ng/mL. The concentration at 4 h (Dog 2, day 1, 4 h) was 161 ng/mL, the concentration at 7 h (Dog 2, day 1, 7 h) was < 30 ng/mL and the concentration at 12 h (Dog 2, day 1, 12 h) was < 30 ng/mL. The AUC(0-t) (Dog 2, day 1) was 881 ng·h/mL, the Cmax (Dog 2, day 1) was 334 ng/mL and the Tmax (Dog 2, day 1) was 1 h. The half-life (Dog 2, day 1) was 2.88 h, the AUC(0-inf) (Dog 2, day 1) was 1300 ng·h/mL and the concentration at 0.5 h (Dog 2, day 3, 0.5 h) was < 30 ng/mL. It also gave a concentration at 1 h (Dog 2, day 3, 1 h) of 205 ng/mL, a concentration at 2 h (Dog 2, day 3, 2 h) of 129 ng/mL and a concentration at 4 h (Dog 2, day 3, 4 h) of 36 ng/mL. The concentration at 7 h (Dog 2, day 3, 7 h) was < 30 ng/mL, the concentration at 12 h (Dog 2, day 3, 12 h) was < 30 ng/mL and the AUC(0-t) (Dog 2, day 3) was 383 ng·h/mL. For the same molecule, the Cmax (Dog 2, day 3) was 205 ng/mL, the Tmax (Dog 2, day 3) was 1 h and the half-life (Dog 2, day 3) was 1.18 h. It also gave an AUC(0-inf) (Dog 2, day 3) of 477 ng·h/mL, a concentration at 0.5 h (Dog 2, day 5, 0.5 h) of 54 ng/mL and a concentration at 1 h (Dog 2, day 5, 1 h) of 222 ng/mL. The concentration at 2 h (Dog 2, day 5, 2 h) was 149 ng/mL, the concentration at 4 h (Dog 2, day 5, 4 h) was 30 ng/mL and the concentration at 7 h (Dog 2, day 5, 7 h) was < 30 ng/mL. The concentration at 12 h (Dog 2, day 5, 12 h) was < 30 ng/mL, the AUC(0-t) (Dog 2, day 5) was 447 ng·h/mL and the Cmax (Dog 2, day 5) was 222 ng/mL. It also gave a Tmax (Dog 2, day 5) of 1 h, a half-life (Dog 2, day 5) of 0.99 h and an AUC(0-inf) (Dog 2, day 5) of 525 ng·h/mL. For the same molecule, the concentration at 0.5 h (Dog 3, day 1, 0.5 h) was 97 ng/mL, the concentration at 1 h (Dog 3, day 1, 1 h) was 325 ng/mL and the concentration at 2 h (Dog 3, day 1, 2 h) was 303 ng/mL. The concentration at 4 h (Dog 3, day 1, 4 h) was 138 ng/mL, the concentration at 7 h (Dog 3, day 1, 7 h) was 45 ng/mL and the concentration at 12 h (Dog 3, day 1, 12 h) was < 30 ng/mL. It also gave an AUC(0-t) (Dog 3, day 1) of 1160 ng·h/mL, a Cmax (Dog 3, day 1) of 325 ng/mL and a Tmax (Dog 3, day 1) of 1 h. For the same molecule, the half-life (Dog 3, day 1) was 1.82 h, the AUC(0-inf) (Dog 3, day 1) was 1280 ng·h/mL and the concentration at 0.5 h (Dog 3, day 3, 0.5 h) was 292 ng/mL. The concentration at 1 h (Dog 3, day 3, 1 h) was 350 ng/mL, the concentration at 2 h (Dog 3, day 3, 2 h) was 220 ng/mL and the concentration at 4 h (Dog 3, day 3, 4 h) was 60 ng/mL. For the same molecule, the concentration at 7 h (Dog 3, day 3, 7 h) was < 30 ng/mL and the concentration at 12 h (Dog 3, day 3, 12 h) was < 30 ng/mL.
